Several values for one entry are separate records, joined by “and”; a condition that tells them apart may be missing. Identical values can stand only once. Like-named read-outs stand apart in the source and are kept apart here.
Tests used:
[1] = test system: HIV-1 replication in H9 cells; assay: HIV-1 replication inhibition in acutely infected H9 lymphocytes (p24 antigen ELISA); type: cell-based, HIV-1 (IIIB strain)
Description: (§1) HIV inhibition assay. The HIV inhibition was measured as described herein. Briefly, H9 cells, a T cell line, (3.5×10^6 cells/ml) were incubated in the presence or absence of HIV-1 (IIIB strain, 0.01-0.1 TCID50 /cell) for 1 hour at 37° C. Cells were washed thoroughly and resuspended at a final concentration of 2×10^5 cells/ml in the presence or absence of compound. After incubation for 3-4 days at 37° C., the cell density of uninfected cultures was determined by cell count to assess toxicity of the drug. An aliquot of each cell-free supernatant was assayed by p24 antigen ELISA to quantitate the amount of HIV-1 present in the infected cultures. Test compounds were considered to be active at a particular concentration if p24 antigen levels were less than 70% of infected, untreated controls and were nontoxic to uninfected H9 cells.
(§2) HIV Growth Inhibition Assay: The T cell line, H9, and the promonocytic cell line, U937, were maintained separately in continuous culture with complete medium (RPMI 1640 and […] fetal calf serum (FCS) at 5% CO2 and 37° C. Cell lines were used in experiments only when in log phase of growth; whereas, uninfected peripheral blood mononuclear cells (PBMCs) were first stimulated with PHA (1 μg/ml) for 3 days. All cell targets were incubated with HIV-1 (IIIB isolate, TCID50 10 ^4 IU/mi, at a multiplicity of infection of 0.1-0.01 IU/cell) for 1 hour at 37° C. and 5% CO2. The cell lines and PBMCs were washed thoroughly to remove unabsorbed virions and resuspended at 4×10^5 cells/ml in complete medium or complete medium with 10% v/v interleukin […] IL-2, respectively. Aliquots ( ml) were placed in wells of 24-well culture plates containing an equal volume of test compound (diluted in the appropriate culture medium). After incubation for 4 days at 37° C., cell density of uninfected cultures was determined by counting cells in a Coulter counter to assess toxicity of the test compound. A p24 antigen ELISA assay was used to determine the level of virus released in the medium of the HIV-infected cultures. The p24 antigen assay uses a HIV-1 anti-p24 specific monoclonal antibody as the capture antibody coated-on 96-well plates. Following a sample incubation period, rabbit serum containing antibodies for HIV-1 p24 is used to tag any p24 "captured" onto the microtiter well surface. Peroxidase conjugated goat anti-rabbit serum is then used to tag HIV-1 p24 specific rabbit antibodies which have complexed with captured p24. […] The cut-off for the p24 ELISA assay is 12. pg/ml. P24 in the culture medium was quantitated against a standard curve containing known amounts of p24. The effective (EC50) and inhibitory (IC50) concentrations (for anti-HIV activity and cytotoxicity, respectively) were determined graphically. Both the EC50 and IC50 values were calculated by plotting drug concentration versus percent inhibition, and then identifying a 50% inhibition value from the graph.

uninfected H9 cells = assay: Toxicity to uninfected H9 cells (cell growth); type: cell-based; conditions: Homo sapiens
Description: as §1, §2

[2] = test system: chronically HIV-1 infected ACH-2 cells; assay: Virus expression from chronically HIV-1 infected T cell line ACH-2 (p24 antigen ELISA); type: cell-based
Description: (§3) Effects of suksdorfin analogs on Chronically HIV-1 infected cells. The experimental design is as follows: The phorbol ester, PMA (10^-8 M) and various concentrations of suksdorfin were either added or not added to both the chronically HIV-1 infected T cell line (ACH-2) and to the chronically HIV-1 infected monocytic cell line (U1). Cell-free supernatant was collected 72 hours post culture for p24 antigen ELISA.
Results (Table 11) from adding compound 16 to the chronically HIV-infected T cell line, ACH-2, according to methods in above examples. ACH-2 are a chronically HIV-1 infected T cell line. It was derived from A3.01 cells which is a subclone of the CEM cell line. The data below indicates the following points:
(§4) Chronically HIV-1 infected cell lines. HIV-1 chronically infected T cell line, ACH-2^12, and HIV-1 chronically infected promonocytic cell line, U1 13, were continuously maintained in RPMI 1640 with 10% fetal calf serum (FCS). For experiments, the cell lines were only used in the […] of growth. Cells (0.5×10^6 cells/well) and either various concentrations of suksdorfin or medium alone were added to 24-well plates in the presence or absence of PMA (10^-8 M). After 72 hours at 37° C. and 5% CO2, an aliquot of the cell-free supernatants were collected and analyzed for p24 antigen by ELISA (see below for details of p24 antigen ELISA).

[3] = test system: chronically HIV-1 infected U1 cells; assay: Virus expression from chronically HIV-1 infected monocytic cell line U1 (p24 antigen ELISA); type: cell-based
Description: as §3
Compound 16 was also assayed on ACH-2 (chronically HIV-1 infected T cell line). U1 cells are also chronically HIV-1 infected cells but they are from the monocytic cell line, U937. The data presented in Table 8 indicates the following points:
as §4

[4] = test system: HIV-1 replication in U937 cells; assay: HIV-1 replication in acutely infected promonocytic U937 cells; type: cell-based, HIV-1 (IIIB); conditions: for EC50: Human immunodeficiency virus 1, U-937
Description: Suksdorfin was also tested on an acute HIV-1 infection of the promonocytic cell line, U937. This was done again to determine drug specificity but this time on a monocytic cell line.
As part of efforts to biologically characterize 16 the monocytic cell line, U937 and peripheral blood mononuclear cells (PBMCs) were separately infected with HIV-1 and then had various concentrations of the analog added for 4 days of culture.
as §2

`Cc1cn([C@H]2C[C@H](N=[N+]=[N-])[C@@H](CO)O2)c(=O)[nH]c1=O` [AZT, azidothymidine, reference compound] was tested. Which EC50 ([1]; Human immunodeficiency virus 1, H9, Table 3, H9 lymphocytes) did it give?
The EC50 was 0.04 µM.

And the EC50 ([1]; Human immunodeficiency virus 1, H9, Table 17, acutely infected H9 lymphocytes)?
Its EC50 is 0.15 µM.

What about the “Therapeutic Index” value ([1]; Table 3, H9 lymphocytes) of the same compound?
The value was 50,000.

And the “Therapeutic Index” value ([1]; Table 17, H9)?
Its value is 12,500.

What about the IC50 (uninfected H9 cells; H9, Table 3, H9 lymphocytes) of the same compound?
Its IC50 is 2000 µM.

And the IC50 (uninfected H9 cells; H9, Table 17, uninfected H9 cell growth)?
The IC50 was 1880 µM.

And the P24 ([2]; Table 11 (ACH-2), +PMA, 0.01 μg/ml)?
The P24 was 21,373 pg/ml.

What about the P24 ([2]; Table 11 (ACH-2), +PMA, 0.1 μg/ml) of the same compound?
The P24 was 10,621 pg/ml.

What about the P24 ([2]; Table 11 (ACH-2), +PMA, 1 μg/ml) of the same compound?
The P24 was 17,088 pg/ml.

And the P24 ([2]; Table 11 (ACH-2), +PMA, 10 μg/ml)?
The P24 was 16,584 pg/ml.

And the P24 ([2]; Table 11 (ACH-2), -PMA, 0.01 μg/ml)?
Its P24 is 796 pg/mL.

And the P24 ([2]; Table 11 (ACH-2), -PMA, 0.1 μg/ml)?
The P24 was 942 pg/mL.

What about the P24 ([2]; Table 11 (ACH-2), -PMA, 1 μg/ml) of the same compound?
The P24 was 904 pg/mL.

What about the P24 ([2]; Table 11 (ACH-2), -PMA, 10 μg/ml) of the same compound?
The P24 was 939 pg/mL.

And the P24 ([3]; U1, +PMA, 0.01 μg/ml)?
Its P24 is 9626 pg/mL.

What about the P24 ([3]; U1, +PMA, 0.1 μg/ml) of the same compound?
The P24 was 4363 pg/mL.

What about the P24 ([3]; U1, +PMA, 1 μg/ml) of the same compound?
Its P24 is 7898 pg/mL.

What about the P24 ([3]; U1, +PMA, 10 μg/ml) of the same compound?
The P24 was 8653 pg/mL.

What about the P24 ([3]; U1, -PMA, 0.01 μg/ml) of the same compound?
The P24 was 50 pg/mL.

What about the P24 ([3]; U1, -PMA, 0.1 μg/ml) of the same compound?
Its P24 is 53 pg/mL.

And the P24 ([3]; U1, -PMA, 1 μg/ml)?
Its P24 is 72 pg/mL.

What about the P24 ([3]; U1, -PMA, 10 μg/ml) of the same compound?
The P24 was 97 pg/mL.

Which results are given for `CC1(C)Oc2ccc3ccc(=O)oc3c2[C@@H](OC(=O)[C@@]23CC[C@@](C)(C(=O)O2)C3(C)C)[C@H]1OC(=O)[C@@]12CC[C@@](C)(C(=O)O1)C2(C)C` [Compound 16, 3',4'-Di-O-(-)-Camphanoyl-(+)-cis-Khellactone]?
suppression ([1]; 0.000256 μg/ml, separate assays, H9): 35%; inhibition at 0.000256 µg/mL ([1]; Human immunodeficiency virus 1, H9, 0.000256 μg/ml, separate assays, H9, read-out: suppression): 44%; EC50 ([1]; Human immunodeficiency virus 1, H9, H9, text to Table 7, read-out: EC50): ≥ 0.000256 µg/mL and 0.41 nM; EC50 ([1]; Human immunodeficiency virus 1, H9, H9 lymphocytes, Table 3, read-out: ED^50 (the source's name)): ≥ 0.00041 µM; EC50 ([1]; Human immunodeficiency virus 1, H9, Table 3, H9 lymphocytes, read-out: EC50): 0.00041 µM; EC50 ([1]; Human immunodeficiency virus 1, H9, Table 7, read-out: EC5): 0.000256 µg/mL and 0.41 nM; EC50 ([1]; Human immunodeficiency virus 1, H9, Table 17, acutely infected H9 lymphocytes, read-out: EC50): 0.00041 µM; anti-HIV activity in H9 cells (in words) ([1]; acutely infected H9 cells): potent anti-HIV activity; P24 ([2]; ACH-2, +PMA, 0.0000102 μg/ml): 17,938 pg/ml; P24 ([2]; ACH-2, +PMA, 0.0000512 μg/ml): 16,079 pg/ml; P24 ([2]; ACH-2, +PMA, 0.00025 μg/ml): 22,756 pg/ml; P24 ([2]; ACH-2, +PMA, 0.00128 μg/ml): 22,344 pg/ml; P24 ([2]; ACH-2, +PMA, 0.032 μg/ml): 24,650 pg/ml; P24 ([2]; ACH-2, +PMA, 0.064 μg/ml [0.010 μM] (so in the source)): 24,364 pg/ml; P24 ([2]; ACH-2, +PMA, 0.16 μg/ml): 21,865 pg/ml; P24 ([2]; ACH-2, +PMA, 0.8 μg/ml): 20,183 pg/ml; P24 ([2]; ACH-2, +PMA, 4 μg/ml): 23,547 pg/ml; P24 ([2]; ACH-2, +PMA, 20 μg/ml): 24,858 pg/ml; P24 ([2]; ACH-2, -PMA, 0.0000102 μg/ml): 666 pg/mL; P24 ([2]; ACH-2, -PMA, 0.0000512 μg/ml): 659 pg/mL; P24 ([2]; ACH-2, -PMA, 0.00025 μg/ml): 777 pg/mL; P24 ([2]; ACH-2, -PMA, 0.00128 μg/ml): 811 pg/mL; P24 ([2]; ACH-2, -PMA, 0.032 μg/ml): 1319 pg/mL; P24 ([2]; ACH-2, -PMA, 0.064 μg/ml [0.010 μM] (so in the source)): 955 pg/mL; P24 ([2]; ACH-2, -PMA, 0.16 μg/ml): 1174 pg/mL; P24 ([2]; ACH-2, -PMA, 0.8 μg/ml): 976 pg/mL; P24 ([2]; ACH-2, -PMA, 4 μg/ml): 1194 pg/mL; P24 ([2]; ACH-2, -PMA, 20 μg/ml): 1509 pg/mL; effect on virus expression of PMA-stimulated ACH-2 cells (in words) ([2]; with PMA): did not suppress virus replication; induction of virus expression from ACH-2 cells (in words) ([2]; without PMA): did not induce the ACH-2 cells to make virus; P24 ([3]; U1, +PMA, 0.0000102 μg/ml): 7328 pg/mL; P24 ([3]; U1, +PMA, 0.0000512 μg/ml): 8710 pg/mL; P24 ([3]; U1, +PMA, 0.00025 μg/ml): 7757 pg/mL; P24 ([3]; U1, +PMA, 0.00128 μg/ml): 6335 pg/mL; P24 ([3]; U1, +PMA, 0.0064 μg/ml): 6419 pg/mL; P24 ([3]; U1, +PMA, 0.032 μg/ml): 8090 pg/mL; P24 ([3]; U1, +PMA, 0.16 μg/ml): 7162 pg/mL; P24 ([3]; U1, +PMA, 0.8 μg/ml): 8390 pg/mL; P24 ([3]; U1, +PMA, 4 μg/ml): 8742 pg/mL; P24 ([3]; U1, +PMA, 20 μg/ml): 9530 pg/mL; P24 ([3]; U1, -PMA, 0.0000102 μg/ml): 52 pg/mL; P24 ([3]; U1, -PMA, 0.0000512 μg/ml): 56 pg/mL; P24 ([3]; U1, -PMA, 0.00025 μg/ml): 78 pg/mL; P24 ([3]; U1, -PMA, 0.00128 μg/ml): 99 pg/mL; P24 ([3]; U1, -PMA, 0.0064 μg/ml): 90 pg/mL; P24 ([3]; U1, -PMA, 0.032 μg/ml): 101 pg/mL; P24 ([3]; U1, -PMA, 0.16 μg/ml): 76 pg/mL; P24 ([3]; U1, -PMA, 0.8 μg/ml): 88 pg/mL; P24 ([3]; U1, -PMA, 4 μg/ml): 41 pg/mL; P24 ([3]; U1, -PMA, 20 μg/ml): 95 pg/mL; effect on virus expression of PMA-stimulated U1 cells (in words) ([3]; with PMA): did not suppress virus replication; induction of virus expression from U1 cells (in words) ([3]; without PMA): did not induce the U1 cells to make virus; EC50 ([4]; U937 cell line): 1.28 ng/mL; EC50 ([4]; U937 cells): 0.0021 µM; suppression of acute HIV-1 replication in U937 cells (in words) ([4]; U937 cells): suppression detected

Source: US6319929A, “Suksdorfin analogs, compositions thereof, and methods for making and using thereof” (priority 1998, dated 2001)
